Source: patent publication US12133846B2, “Electrophilic androgen receptor (AR) antagonists for AR downregulation and ferroptosis induction in cancer cells” (priority 2019, dated 2024)
“And” between values parts separate entries of the source, which are not always exact repeats. Equal entries are not always repeated.

How the values were obtained:
[1] = system: C4-2 cells; assay: MTT viability assay, C4-2 cells; type: cell-based; conditions: 5 μM, 72 h
Text: (§1) Biological Characterization. ITC-ARi hybrid drugs effectively reduce the viability of PCa cells. By using an MTT assay, it was first examined if the newly synthesized hybrid drugs affect the viability of CRPC-relevant PCa cells. PCa VCaP cells naturally express abundant wild type FL AR as well as AR splice variants (e.g., AR-V7). These cells were, therefore, used as one of the cell culture models in this work to investigate the drug-caused viability loss and AR downregulation.

[2] = system: VCaP cells; assay: MTT viability assay, VCaP cells; type: cell-based; conditions: Homo sapiens, VCaP; 72 h, full media, MTT; read-out: IC50, viability of VCaP cells
Text: as §1

[3] = system: AR transcriptional activity in MDA-kb2 cells; assay: cells; type: cell-based; conditions: DHT 1 nM
Description: MDA-kb2-cell-based ARE luciferase assays were performed to assess the influence of 2-63 and related compounds on AR transcriptional activity. […] Upon androgen stimulation and addition of a luciferase substrate, […], and the intensity is proportional to the extent of AR activation. An agent that either antagonistically competes with DHT for AR binding or reduces the expression of AR diminishes luciferase activity/fluorescence signal in this experimental system. […] 10b (an alcohol) and 11 b (an azide) are synthetic precursors of the ITC hybrid 12b.
Luciferase Assay. […] For all procedures, cells were incubated at CO2 free condition. Steady-Glo® (Promega Corp., Madison, WI) reagent was added to culture media with shaking for 10 min. Samples (100 μL) were transferred to an opaque 96-well white plate, and luminescence was measured using a luminometer.

[4] = system: acetylation of α-tubulin and histone H3 (markers for HDAC6 and nuclear HDAC inhibition); assay: Western blotting of acetylation markers in VCaP cells; type: cell-based; conditions: 16 h, 2-63 and 12b 5 and 15 μM, SAHA 1 μM
Description: (§2) Western Blotting. […] Proteins in cell lysates (40 μg) were separated using electrophoresis on SDS-PAGE and transferred onto PVDF (polyvinylidenedifluoride) membranes. Membranes were blocked in 5% fat-free milk followed by incubation with primary antibodies overnight at 4° C., and the secondary horseradish peroxidase-conjugated anti-rabbit or anti-mouse antibodies. The blots were developed in the Enhanced Chemiluminescence mixture and detected by ImageQuant™ LAS 4000 imaging system (GE). Density of protein bonds were calculated and analyzed by using imageJ software downloaded from the National Institute of Health website.

[5] = system: LNCaP and RWPE-1 cells; assay: MTT viability, PCa LNCaP versus non-cancerous RWPE-1 cells; type: cell-based; conditions: 72 h, 2.5 to 10 μM
Text: Because of the better selectivity and water solubility of 2-63 over 12b, 2-63 was used for further in vitro characterization and mechanistic studies.

[6] = system: 22Rv1 cells; assay: MTT viability assay, 22Rv1 cells; type: cell-based; conditions: 5 μM, 72 h
Text: as §1

[7] = system: Hsp90, Hsp70, HO-1; assay: Western blotting of Hsp90, Hsp70 and HO-1 in VCaP cells; type: cell-based; conditions: 16 h, 5 and 15 μM
Description: as §2

[8] = target: T1, FL AR and AR-V7 (Homo sapiens, UniProt P10275); assay: Western blotting of FL AR and AR-V7 in VCaP cells; type: cell-based; conditions: full media, 16 h, 2-63, 12b 5 and 15 μM, Enz 10 μM, SAHA 1 μM
T1 construct: Whole cell lysates were subjected to Western blotting and probed with the indicated antibodies; endogenous in cells; host or cells: VCaP
T1 sequence (P10275 1-920): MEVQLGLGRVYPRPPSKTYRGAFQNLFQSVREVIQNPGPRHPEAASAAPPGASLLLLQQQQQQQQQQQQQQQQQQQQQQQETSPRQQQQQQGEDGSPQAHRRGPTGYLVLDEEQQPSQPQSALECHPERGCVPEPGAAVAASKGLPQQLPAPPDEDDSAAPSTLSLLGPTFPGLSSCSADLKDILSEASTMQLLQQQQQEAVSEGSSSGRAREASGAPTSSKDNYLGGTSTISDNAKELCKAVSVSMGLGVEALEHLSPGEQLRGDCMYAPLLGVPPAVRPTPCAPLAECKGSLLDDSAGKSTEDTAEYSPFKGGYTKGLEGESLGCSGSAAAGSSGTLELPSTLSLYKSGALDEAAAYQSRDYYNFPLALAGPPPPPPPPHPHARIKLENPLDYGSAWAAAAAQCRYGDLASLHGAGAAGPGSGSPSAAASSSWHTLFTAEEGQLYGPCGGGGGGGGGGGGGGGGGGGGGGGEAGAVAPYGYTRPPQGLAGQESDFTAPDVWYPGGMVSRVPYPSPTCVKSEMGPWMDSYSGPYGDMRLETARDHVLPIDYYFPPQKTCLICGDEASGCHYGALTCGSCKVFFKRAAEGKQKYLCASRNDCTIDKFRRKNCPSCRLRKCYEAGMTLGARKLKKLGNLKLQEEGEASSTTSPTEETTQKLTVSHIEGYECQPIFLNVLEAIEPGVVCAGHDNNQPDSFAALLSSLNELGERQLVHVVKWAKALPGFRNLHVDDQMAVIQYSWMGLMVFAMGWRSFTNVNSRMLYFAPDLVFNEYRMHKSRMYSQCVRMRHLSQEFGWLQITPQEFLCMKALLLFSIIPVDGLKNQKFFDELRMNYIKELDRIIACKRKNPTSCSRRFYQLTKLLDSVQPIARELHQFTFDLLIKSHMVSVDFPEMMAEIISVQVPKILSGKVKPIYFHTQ
Description: as §2

[9] = target: T2, FL AR and AR-V7 (Homo sapiens, UniProt P10275); assay: Western blotting of FL AR and AR-V7 in VCaP cells; type: cell-based; conditions: full media, 16 h, 2-63, 12b 5 and 15 μM, Enz 10 μM
T2 construct: Whole cell lysates were subjected to Western blotting and probed with the indicated antibodies; endogenous in cells; host or cells: VCaP
T2 sequence (P10275 1-644 isoform P10275-3): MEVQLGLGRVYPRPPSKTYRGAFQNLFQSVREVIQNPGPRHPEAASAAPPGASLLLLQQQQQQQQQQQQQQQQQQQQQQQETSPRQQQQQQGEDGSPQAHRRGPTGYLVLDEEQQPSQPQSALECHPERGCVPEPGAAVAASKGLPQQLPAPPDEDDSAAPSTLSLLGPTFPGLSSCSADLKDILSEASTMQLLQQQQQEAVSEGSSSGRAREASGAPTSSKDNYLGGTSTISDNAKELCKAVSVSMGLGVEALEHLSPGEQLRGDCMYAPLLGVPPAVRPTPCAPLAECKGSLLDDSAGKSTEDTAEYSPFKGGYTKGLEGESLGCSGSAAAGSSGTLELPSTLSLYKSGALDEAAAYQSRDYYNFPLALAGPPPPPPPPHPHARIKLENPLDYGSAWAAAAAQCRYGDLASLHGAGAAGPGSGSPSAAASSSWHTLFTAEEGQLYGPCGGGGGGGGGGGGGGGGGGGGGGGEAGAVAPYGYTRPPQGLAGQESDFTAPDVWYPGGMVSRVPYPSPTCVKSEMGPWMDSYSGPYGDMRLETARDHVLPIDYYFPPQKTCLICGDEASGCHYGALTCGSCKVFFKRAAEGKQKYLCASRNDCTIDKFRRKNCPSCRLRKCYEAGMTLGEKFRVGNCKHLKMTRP
Description: as §2

[10] = system: RWPE-1 cells; assay: BSO pretreatment plus 2-63, MTT viability, RWPE-1 cells; conditions: BSO up to 100 μM
Description: Cell viability was then assessed using an MTT assay.
PCa cells (6×10^3 cells/well) were seeded into 96-well plates overnight and then treated with indicated compounds at indicated concentrations and time durations. The MTT (3-(4, 5-Dimethylthiazol-2-yl)-2,5-diphenyltetrazolium bromide) assay was performed according to the standard protocol. Briefly, MTT (0.5 mg/mL) was incubated with cells at 37° C. for 3 hours. Supernatant was removed, followed by the addition of dimethyl DMSO (100 μl). After incubation for 30 minutes at 37° C., absorbance was read at 570 nm on a microplate reader.

`CC1(C)C(=O)N(c2ccc(C#N)c(C(F)(F)F)c2)C(=S)N1c1ccc(CCCCCCN=C=S)nc1` [12b, 4-(3-(6-(6-Isothiocyanatohexyl)pyridin-3-yl)-4,4-dimethyl-5-oxo-2-thioxoimidazolidin-1-yl)-2-(trifluoromethyl) benzonitrile] was tested, and the “relative potency in viability reduction, C4-2 cells” value [1] was “more effective than 12a and 12b>2-63>PEITC-NAC”, the IC50 [2] was 3.89 µM and the “AR inhibition at 1 μM relative to Enz, 10b and 11b” value ([3]; 1 μM) was “less effective”. The “suppression of DHT-stimulated luciferase activity” value ([3]; 1-5 μM) was “decreased luciferase activity in a dose-dependent manner”, the “AR inhibition at higher concentrations relative to comparators” value ([3]; 2.5 and 5 μM) was “similarly with these non-ITC-containing compounds” and the “histone H3 acetylation” value [4] was “did not show significant effects”. For the same molecule, the α-tubulin acetylation ([4]; SFN 15 μM) was “did not show significant effects”, the “differential anti-proliferative effect, LNCaP vs RWPE-1 cells” value [5] was “almost equally suppressed” and the “relative potency in viability reduction, 22Rv1 cells” value [6] was “more effective than 12a and 12b>2-63>PEITC-NAC”. The Hsp70 protein level [7] was “significantly induced”, the Hsp90 protein level [7] was “did not change” and the “FL AR expression” value [8] was “seemed to be more effective”. For the same molecule, the AR-V7 expression [9] was “seemed to be more effective”.
For `CCCCS(=N)(=O)CCC(N)C(=O)O` [BSO, L-buthionine sulfoximine, reference compound], the “enhancement of the potency of 2-63 by BSO in RWPE-1 cells” value [10] was “does not notably enhance”.
